Assay results taken from patent US9302999B2, “Substituted triazoles as herbicides” (E. I. DU PONT DE NEMOURS AND COMPANY, priority 2012, dated 2016).

Key:
[1] = test system: kochia (Kochia scoparia); assay: Test C pre-/postemergence: kochia; format: in vivo; conditions: Postemergence
How it was run: (§1)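 Visual injury scored 0–100 (100 = complete control) against untreated controls after 13–15 greenhouse days. Surfactant-containing solvent formulations applied either to soil after sowing (loam/sand) or over 1- to 4-leaf plants, 2–18 cm tall.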

[2] = test system: crabgrass, large (large crabgrass, Digitaria sanguinalis); assay: Test A pre-/postemergence: crabgrass, large; format: in vivo
How it was run: (§2)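 Visual 0–100 injury ratings (0 no effect, 100 complete control) taken about ten days after treatment, relative to untreated controls. Preemergence treatment was a directed soil spray; postemergence plants were 2–10 cm tall at one- to two-leaf stage. Soil: loam/sand blend.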

[3] = test system: morningglory (Ipomoea spp.); assay: Test A pre-/postemergence: morningglory; format: in vivo
How it was run: as §2

[4] = test system: soybean (Glycine max); assay: Test C pre-/postemergence: soybean; format: in vivo
How it was run: as §1

[5] = test system: foxtail, giant (giant foxtail, Setaria faberii); assay: Test A pre-/postemergence: foxtail, giant; format: in vivo
How it was run: as §2

[6] = test system: sedge, umbrella (small-flower umbrella sedge Cyperus difformis); assay: Test B flooded paddy: sedge, umbrella; format: in vivo; conditions: Flood; 250 g ai/ha; applied to paddy water at 2-leaf stage; visually evaluated after 13 to 15 days
How it was run: (§3)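 Greenhouse assay lasting 13 to 15 days. Treatment was into water flooding pots 3 cm deep, at the 2-leaf stage, with that level sustained afterwards. Scores compare treated with control plants visually, 100 denoting complete control and 0 no effect; a dash marks no test result.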

[7] = test system: nutsedge, yellow (yellow nutsedge, Cyperus esculentus); assay: Test C pre-/postemergence: nutsedge, yellow; format: in vivo
How it was run: as §1

[8] = test system: ducksalad (Heteranthera limosa); assay: Test B flooded paddy: ducksalad; format: in vivo; conditions: Flood; 250 g ai/ha; applied to paddy water at 2-leaf stage; visually evaluated after 13 to 15 days
How it was run: as §3

[9] = test system: ragweed (common ragweed, Ambrosia elation); assay: Test C pre-/postemergence: ragweed; format: in vivo
How it was run: as §1

[10] = test system: velvetleaf (Abutilon theophrasti); assay: Test C pre-/postemergence: velvetleaf; format: in vivo
How it was run: as §1

[11] = test system: Barnyardgrass; assay: Test C preemergence: barnyardgrass; format: in vivo, Echinochloa crus-galli
[12] = 125 g ai/ha, scale 0 to 100, 0 no effect, 100 complete control
[13] = Postemergence, 125 g ai/ha, 0 to 100 scale, 0 is no effect, 100 is complete control
[14] = Postemergence, 500 g ai/ha, 0 to 100 scale, 0 is no effect, 100 is complete control
[15] = Preemergence, 125 g ai/ha, 0 to 100 scale where 0 is no effect and 100 is complete control
[16] = Preemergence, 500 g ai/ha, 0 to 100 scale (0 no effect, 100 complete control)
[17] = Postemergence, 31 g ai/ha, scale 0 to 100 (0 no effect, 100 complete control)
[18] = Postemergence, 62 g ai/ha, scale 0 to 100 (0 no effect, 100 complete control)
[19] = Postemergence, 125 g ai/ha, scale 0 to 100, 0 no effect, 100 complete control
[20] = Preemergence, 31 g ai/ha, scale 0 (no effect) to 100 (complete control)
[21] = Preemergence, 62 g ai/ha, scale of 0 to 100, 0 is no effect, 100 is complete control
[22] = Preemergence, 125 g ai/ha, scale 0 to 100, 0 no effect, 100 complete control
[23] = Postemergence, 250 g ai/ha, scale 0 to 100 (0 no effect, 100 complete control)
[24] = Preemergence, 250 g ai/ha, scale 0 to 100, 0 no effect, 100 complete control

CCc1nn(-c2ccc(F)c(F)c2)nc1Oc1ccnc(C(F)(F)F)c1 [Compound 171]
Plant response rating, Kochia ([1]; 31 g ai/ha, scale 0 to 100 (0 no effect, 100 complete control)): 90
Plant response rating, Kochia ([1]; 62 g ai/ha, scale 0 to 100 (0 no effect, 100 complete control)): 90
Plant response rating, Kochia [1, 12]: 90
Plant response rating, Kochia ([1]; 250 g ai/ha, scale 0 to 100 (0 no effect, 100 complete control)): 90
Plant response rating, Crabgrass, Large [2, 13]: 90
Crabgrass, Large plant response rating [2, 14]: 100
Plant response rating, Crabgrass, Large [2, 15]: 100
Plant response rating, Crabgrass, Large [2, 16]: 100
Plant response rating, Morningglory [3, 13]: 100
Morningglory plant response rating [3, 14]: 100
Plant response rating, Morningglory [3, 15]: 50
Plant response rating, Morningglory [3, 16]: 60
Plant response rating, Soybean [4, 17]: 25
Plant response rating, Soybean [4, 18]: 35
Plant response rating, Soybean [4, 19]: 40
Plant response rating, Soybean [4, 20]: 0
Plant response rating, Soybean [4, 21]: 0
Plant response rating, Soybean [4, 22]: 5
Plant response rating, Foxtail, Giant [5, 13]: 80
Foxtail, Giant plant response rating [5, 14]: 90
Plant response rating, Foxtail, Giant [5, 15]: 100
Plant response rating, Foxtail, Giant [5, 16]: 100
Plant response rating, Sedge, Umbrella (0 to 100 scale, 0 is no effect, 100 is complete control) [6]: 85
Plant response rating, Nutsedge, Yellow [7, 17]: 5
Plant response rating, Nutsedge, Yellow [7, 18]: 5
Plant response rating, Nutsedge, Yellow [7, 19]: 10
Plant response rating, Nutsedge, Yellow [7, 23]: 10
Plant response rating, Nutsedge, Yellow [7, 20]: 0
Plant response rating, Nutsedge, Yellow [7, 21]: 0
Plant response rating, Nutsedge, Yellow [7, 22]: 0
Plant response rating, Nutsedge, Yellow [7, 24]: 0
Plant response rating, Ducksalad (0 to 100 scale, 0 is no effect, 100 is complete control) [8]: 0
Plant response rating, Ragweed [9, 17]: 55
Plant response rating, Ragweed [9, 18]: 55
Plant response rating, Ragweed [9, 19]: 55
Plant response rating, Ragweed [9, 23]: 55
Plant response rating, Ragweed [9, 20]: 0
Plant response rating, Ragweed [9, 21]: 5
Plant response rating, Ragweed [9, 22]: 10
Plant response rating, Ragweed [9, 24]: 15
Plant response rating, Velvetleaf [10, 17]: 25
Plant response rating, Velvetleaf [10, 18]: 25
Plant response rating, Velvetleaf [10, 19]: 45
Plant response rating, Velvetleaf [10, 23]: 75
Plant response rating, Velvetleaf [10, 20]: 5
Plant response rating, Velvetleaf [10, 21]: 25
Plant response rating, Velvetleaf [10, 22]: 55
Plant response rating, Velvetleaf [10, 24]: 65
Plant response rating, Barnyardgrass ([11]; 31 g ai/ha, scale 0 (no effect) to 100 (complete control)): 5
Plant response rating, Barnyardgrass ([11]; 62 g ai/ha, scale of 0 to 100, 0 is no effect, 100 is complete control): 75
Plant response rating, Barnyardgrass [11, 12]: 95
